Experimental data: patent US12319679B2, “Morpholinyl, piperazinyl, oxazepanyl and diazepanyl O-glycoprotein-2-acetamido-2-deoxy-3-d-glucopyranosidase inhibitors” (BIOGEN MA INC., priority 2018, dated 2025)

biological target: T1, Recombinant full length human OGA enzyme (Homo sapiens, UniProt O60502); experiment: OGA Enzyme Inhibition Biochemical Assay; conditions: 1 nM OGA, 100 μM 4-MUGlcNAc (Km), pH 6.4, 90 minutes at room temperature; 10-point dose-response starting from 20 μM
T1 construct: Recombinant full length human OGA enzyme was purchased from Origene; purchased Origene
T1 sequence (O60502 1-916): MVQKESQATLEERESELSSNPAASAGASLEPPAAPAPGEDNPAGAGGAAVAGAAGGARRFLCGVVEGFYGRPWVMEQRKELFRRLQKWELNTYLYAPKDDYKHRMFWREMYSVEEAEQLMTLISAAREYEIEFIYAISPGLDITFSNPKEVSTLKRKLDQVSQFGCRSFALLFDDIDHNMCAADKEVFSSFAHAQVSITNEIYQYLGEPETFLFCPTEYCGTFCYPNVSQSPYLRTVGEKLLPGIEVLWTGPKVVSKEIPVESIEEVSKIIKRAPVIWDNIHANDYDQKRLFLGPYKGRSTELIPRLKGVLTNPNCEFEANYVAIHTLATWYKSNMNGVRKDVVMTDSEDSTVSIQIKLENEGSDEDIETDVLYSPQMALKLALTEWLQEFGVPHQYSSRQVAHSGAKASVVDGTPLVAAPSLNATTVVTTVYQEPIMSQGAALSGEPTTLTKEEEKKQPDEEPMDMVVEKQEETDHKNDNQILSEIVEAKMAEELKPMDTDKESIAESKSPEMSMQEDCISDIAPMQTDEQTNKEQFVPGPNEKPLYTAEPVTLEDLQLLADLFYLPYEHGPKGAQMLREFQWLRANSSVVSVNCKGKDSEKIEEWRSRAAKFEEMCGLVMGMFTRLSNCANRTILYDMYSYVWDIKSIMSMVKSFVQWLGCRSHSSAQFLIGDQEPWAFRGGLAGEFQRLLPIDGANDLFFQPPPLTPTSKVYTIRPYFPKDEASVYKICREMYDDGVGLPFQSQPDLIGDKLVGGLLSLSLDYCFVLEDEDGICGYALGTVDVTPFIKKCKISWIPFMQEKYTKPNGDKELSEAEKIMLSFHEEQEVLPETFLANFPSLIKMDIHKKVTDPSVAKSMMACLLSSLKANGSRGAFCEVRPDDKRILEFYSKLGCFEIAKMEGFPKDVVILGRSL
In short: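 Full-length human OGA (1 nM) with 100 μM 4-MUGlcNAc (Km) in McIlvaine buffer pH 6.4, 0.01% BSA, 90 min at room temperature, then quenched with glycine pH 10. Fluorescence at Ex 355/Em 460 nm; 10-point 4-fold series from 20 μM, four-parameter variable-slope fit.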

Row | SMILES | IC50
1 | CC(=O)Nc1ncc(CN2C[C@@H](COc3cc(C)nc(C)c3)N(C)C[C@@H]2C)s1 [Example 3-2, N-(5-(((2S,5S)-5-(((2,6-dimethylpyridin-4-yl)oxy)methyl)-2,4-dimethylpiperazin-1-yl)methyl)thiazol-2-yl)acetamide] | 38 nM
2 | CC(=O)Nc1ncc(CN2CCN(C)[C@@H](Cc3ccnc(C)c3)C2)s1 [Example 4-10, (S)—N-(5-((4-methyl-3-((2-methylpyridin-4-yl)methyl)piperazin-1-yl)methyl)thiazol-2-yl)acetamide] | 660 nM
3 | CC(=O)Nc1ncc(CN2C[C@@H](Cc3ccc(C)nc3)OC[C@@H]2C)s1 [Example 1-33, N-(5-(((2R,5S)-5-methyl-2-((6-methylpyridin-3-yl)methyl)morpholino)methyl)thiazol-2-yl)acetamide] | 31 nM
4 | CC(=O)Nc1ncc(CN2C[C@@H](Cc3ccc(C)nc3)NC[C@@H]2C)s1 [Example 2-9, N-(5-(((2S,5R)-2-methyl-5-((6-methylpyridin-3-yl)methyl)piperazin-1-yl)methyl)thiazol-2-yl)acetamide] | 45 nM
5 | CC(=O)Nc1ncc(CN2C[C@@H](Cc3ccnc(C)c3)N(C(C)=O)C[C@@H]2C)s1 [Example 2-4, N-(5-(((2S,5R)-4-acetyl-2-methyl-5-((2-methylpyridin-4-yl)methyl)piperazin-1-yl)methyl)thiazol-2-yl)acetamide] | 7500 nM
6 | CC(=O)Nc1ncc(CN2CCCNC(Cc3ccnc(C)c3)C2)s1 (stereo not drawn) [Example 2-27, N-(5-((3-((2-methylpyridin-4-yl)methyl)-1,4-diazepan-1-yl)methyl)thiazol-2-yl)acetamide] | 9900 nM
7 | CC(=O)Nc1ncc(CN2CCCN(C)C(Cc3ncc(F)cn3)C2)s1 (stereo not drawn) [Example 2-24, N-(5-((3-((5-fluoropyrimidin-2-yl)methyl)-4-methyl-1,4-diazepan-1-yl)methyl)thiazol-2-yl)acetamide] | 12000 nM
8 | CC(=O)Nc1ncc(CN2C[C@H](Cc3ncc(F)cn3)OC[C@H]2C)s1 [Example 1-29, N-(5-(((2S,5R)-2-((5-fluoropyrimidin-2-yl)methyl)-5-methylmorpholino)methyl)thiazol-2-yl)acetamide] | 12000 nM
9 | CC(=O)Nc1ncc(CN2CCO[C@H](Cc3ccc(C)nc3)C2)s1 [Example 1-19, (R)—N-(5-((2-((6-methylpyridin-3-yl)methyl)morpholino)methyl)thiazol-2-yl)acetamide] | 110 nM
10 | CC(=O)Nc1ncc(CN2C[C@@H](Cc3ccnc(C)c3)NC[C@@H]2C)s1 [Example 2-1, N-(5-(((2S,5R)-2-methyl-5-((2-methylpyridin-4-yl)methyl)piperazin-1-yl)methyl)thiazol-2-yl)acetamide] | 7.4 nM
11 | CC(=O)Nc1ncc(CN2CCCNC(Cc3ncc(F)cn3)C2)s1 (stereo not drawn) [Example 2-23, N-(5-((3-((5-fluoropyrimidin-2-yl)methyl)-1,4-diazepan-1-yl)methyl)thiazol-2-yl)acetamide] | 5600 nM
12 | CC(=O)Nc1ncc(CN2CC(C)OC(Cc3ncc(F)cn3)C2)s1 (single isomer, unassigned) [Example 1-35 Peak 1] | 560 nM
13 | CC(=O)Nc1ncc(CN2CCCN(C(C)=O)C(Cc3cc(C)nc(C)c3)C2)s1 (stereo not drawn) [Example 2-29, N-(5-((4-acetyl-3-((2,6-dimethylpyridin-4-yl)methyl)-1,4-diazepan-1-yl)methyl)thiazol-2-yl)acetamide] | > 20000 nM
14 | COc1cc(CC2CN(Cc3cnc(NC(C)=O)s3)CCN2)ccn1 (single isomer, unassigned) [Example 2-22 Peak 2] | 850 nM
15 | CC(=O)Nc1ncc(CN2CCOC(C(C)c3ncc(F)cn3)C2)s1 (single isomer, unassigned) [Example 1-25 Peak 2] | 73 nM
16 | COc1cc(CC2CN(Cc3cnc(NC(C)=O)s3)CCCO2)ccn1 (single isomer, unassigned) [Example 1-41 Peak 1] | 39 nM
17 | CC(=O)Nc1ncc(CN2C[C@@H](Cc3ccnc(C)c3)N(C)C[C@@H]2C)s1 [Example 2-2, N-(5-(((2S,5R)-2,4-dimethyl-5-((2-methylpyridin-4-yl)methyl)piperazin-1-yl)methyl)thiazol-2-yl)acetamide] | 9.8 nM
18 | COc1nccc(CC2CN(Cc3cnc(NC(C)=O)s3)CCN2)c1F (single isomer, unassigned) [Example 4-18 Peak 2] | 1500 nM
